Consider 5 compounds from US7419984B2, “Pyrimidines and uses thereof” (Cell Therapeutics, Inc., priority 2002, dated 2008).

The assay deals with T1, human LPAAT-β (Homo sapiens, UniProt O15120).
T1 construct: the full-length human LPAAT-β cDNA was amplified by PCR; poly-histidine tag (N); made in house; host or cells: Sf9 insect cells (baculovirus, pFastBac HTc); the membrane fraction was used as the enzyme
T1 sequence (O15120 24-278): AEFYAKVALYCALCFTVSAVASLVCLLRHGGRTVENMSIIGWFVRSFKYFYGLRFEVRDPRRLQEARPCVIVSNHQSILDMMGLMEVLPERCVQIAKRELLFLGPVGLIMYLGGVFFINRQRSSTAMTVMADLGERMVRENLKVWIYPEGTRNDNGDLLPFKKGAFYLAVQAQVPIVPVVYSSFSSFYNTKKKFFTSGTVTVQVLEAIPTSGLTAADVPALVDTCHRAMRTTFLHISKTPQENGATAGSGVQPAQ
Briefly: LPAAT-β cell-free assay. The format is biochemical. To be noted: Sf9 cell membrane overexpressing recombinant LPAAT-β. An outline of the steps:
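Membranes from Sf9 cells expressing His/myc-tagged full-length human LPAAT-β were used in HEPES-saline pH 7.5 with 1 mg/ml BSA. Compound was added from a 200 μM DMSO stock, and reaction with 18:1-CoA and sn-1-18:1 lysoPA (1 mM stocks) ran 25 min at RT. Released CoA was detected with DTNB at 405 nm; a radiometric variant used 200 μM [14C]18:1-CoA and 200 μM lysoPA.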

pIC50: −log10 of the molar value.

For orientation: pIC50 means the negative decadic logarithm of the IC50, by convention in mol/L. Consider `CCCOc1ccc(Br)cc1-c1cc(Nc2ccc(Cl)cc2)nc(N)n1` [Example 135, 6-(5-Bromo-2-propoxy-phenyl)-N*4*-(4-chloro-phenyl)-pyrimidine-2,4-diamine], for which the negative logarithm of the IC50 (pIC50) is 8.10.

`COc1ccc(Cl)cc1-c1cc(Nc2ccc(C(F)(F)F)cc2)nc(N)n1` [Example 4, 6-(5-Chloro-2-methoxy-phenyl)-N*4*-(4-trifluoromethylphenyl)-pyrimidine-2,4-diamine]: the pIC50 was 7.06.

For the compound `Nc1nc(Nc2ccc(Cl)cc2)cc(-c2cc(Br)ccc2OCc2ccc([N+](=O)[O-])cc2)n1` [Example 178, 6-[5-Bromo-2-(4-nitro-benzyloxy)-phenyl]-N*4*-(4-chloro-phenyl)-pyrimidine-2,4-diamine], the negative-log IC50 (pIC50) was 7.68.

As to `CCOc1ccc(Br)cc1-c1cc(Nc2ccc(Cl)cc2)ncn1` [Example 190, [6-(5-Bromo-2-ethoxy-phenyl)-pyrimidin4-yl]-(4-chloro-phenyl)-amine], the negative-log IC50 (pIC50) is 7.52.

For the compound `CCOc1ccc(Br)cc1-c1cc(Nc2ccc([N+](=O)[O-])cc2)nc(N)n1` [Example 133, 6-(5-Bromo-2-ethoxy-phenyl)-N*4*-(4-nitro-phenyl)-pyrimidine-2,4-diamine], the negative-log IC50 (pIC50) was 7.82.
